In patent US6399542B1, “Alkoxyimino-substituted bicyclic compounds compositions containing the same and method of making such compounds” (Agro-Kanesho Co., Ltd., priority 1997, dated 2002):
Where two headings read alike, the source gives them in different places.

Assays:
Format in all cases: in vivo
Erysiphe graminis = assay: Effects on Barley powdery mildew (preventive spray test); conditions: lesions counted seven days after inoculation
Puccinia recondita = assay: Effect on Wheat brown rust (preventive spray test); conditions: 7 days after inoculation
Botrytis cinerea = assay: Effect on Cucumber gray mold (cotyledon paper disc test); conditions: 3 days after inoculation
Pyricularia oryzae = conditions: Rice blast, 7 days after inoculation
[1] = test system: Psecidoperonospora cubensis; assay: Effect on Cucumber downy mildew (preventive spray test); conditions: 7 days after inoculation
Chochliobolus miyabeanus = assay: Effect on Rice brown spot (preventive spray test); conditions: 7 days after inoculation
Phytophthora infestans = conditions: Tomato late blight, 5 days after inoculation
[2] = conc. of active ingredient 20 ppm
[3] = conc. of active ingredient 100 ppm
[4] = conc. of active ingredient 4 ppm

CNC(=O)C(OC)c1ccccc1COc1ccc2c(c1)OCC2=NOC (racemic) [a-11]
Preventive rate (%) (Erysiphe graminis; [2]): 88%
Preventive rate (%) (Erysiphe graminis; [3]): 100%
Preventive rate (%) (Puccinia recondita; [2]): 88%
Preventive rate (%) (Puccinia recondita; [3]): 100%
Preventive rate (%) (Botrytis cinerea; [2]): 40%
Preventive rate (%) (Botrytis cinerea; [3]): 87%

COC=C(C(=O)OC)c1ccccc1COc1ccc2c(c1C)OC(C)CC2=NOC (racemic) [d-8]
Preventive rate (%) (Erysiphe graminis; [4]): 100%
Preventive rate (%) (Erysiphe graminis; [2]): 100%
Preventive rate (%) (Erysiphe graminis; [3]): 100%
Preventive rate (%) (Puccinia recondita; [4]): 100%
Preventive rate (%) (Puccinia recondita; [2]): 100%
Preventive rate (%) (Puccinia recondita; [3]): 100%
Preventive rate (%) (Pyricularia oryzae; [4]): 77%
Preventive rate (%) (Pyricularia oryzae; [2]): 83%
Preventive rate (%) (Pyricularia oryzae; [3]): 100%

CNC(=O)C(=NOC)c1ccccc1COc1ccc2c(c1C)CC(C)C2=NOC (racemic) [f-4]
Preventive rate (%) [1, 4]: 100%
Preventive rate (%) [1, 2]: 100%
Preventive rate (%) [1, 3]: 100%
Preventive rate (%) (Chochliobolus miyabeanus; [4]): 68%
Preventive rate (%) (Chochliobolus miyabeanus; [2]): 70%
Preventive rate (%) (Chochliobolus miyabeanus; [3]): 90%

COC=C(C(=O)OC)c1ccccc1COc1ccc2c(c1C)C(C)CC2=NOC (racemic) [f-5]
Preventive rate (%) (Erysiphe graminis; [4]): 97%
Preventive rate (%) (Erysiphe graminis; [2]): 100%
Preventive rate (%) (Erysiphe graminis; [3]): 100%
Preventive rate (%) (Puccinia recondita; [4]): 100%
Preventive rate (%) (Puccinia recondita; [2]): 100%
Preventive rate (%) (Puccinia recondita; [3]): 100%
Preventive rate (%) (Phytophthora infestans; [4]): 92%
Preventive rate (%) (Phytophthora infestans; [2]): 100%
Preventive rate (%) (Phytophthora infestans; [3]): 100%
Preventive rate (%) [1, 4]: 99%
Preventive rate (%) [1, 2]: 100%
Preventive rate (%) [1, 3]: 100%
Preventive rate (%) (Pyricularia oryzae; [4]): 72%
Preventive rate (%) (Pyricularia oryzae; [2]): 89%
Preventive rate (%) (Pyricularia oryzae; [3]): 94%
Preventive rate (%) (Chochliobolus miyabeanus; [4]): 53%
Preventive rate (%) (Chochliobolus miyabeanus; [2]): 94%
Preventive rate (%) (Chochliobolus miyabeanus; [3]): 98%

CO/C=C(/C(=O)OC)c1ccccc1COc1ccc2c(c1C)OC(C)C2=NOC (single isomer, unassigned) [b-4]
Preventive rate (%) (Erysiphe graminis; [4]): 98%
Preventive rate (%) (Erysiphe graminis; [2]): 100%
Preventive rate (%) (Erysiphe graminis; [3]): 100%
Preventive rate (%) (Puccinia recondita; [4]): 100%
Preventive rate (%) (Puccinia recondita; [2]): 100%
Preventive rate (%) (Puccinia recondita; [3]): 100%
Preventive rate (%) (Phytophthora infestans; [2]): 97%
Preventive rate (%) (Phytophthora infestans; [3]): 97%
Preventive rate (%) (Pyricularia oryzae; [2]): 89%
Preventive rate (%) (Pyricularia oryzae; [3]): 95%

CO/C=C(/C(=O)OC)c1ccccc1COc1ccc2c(c1C)OC(C)C2=NOC (single isomer, unassigned) [b-5]
Preventive rate (%) (Erysiphe graminis; [4]): 98%
Preventive rate (%) (Erysiphe graminis; [2]): 98%
Preventive rate (%) (Erysiphe graminis; [3]): 100%
Preventive rate (%) (Puccinia recondita; [4]): 100%
Preventive rate (%) (Puccinia recondita; [2]): 100%
Preventive rate (%) (Puccinia recondita; [3]): 100%
Preventive rate (%) (Phytophthora infestans; [2]): 91%
Preventive rate (%) (Phytophthora infestans; [3]): 97%
Preventive rate (%) (Pyricularia oryzae; [2]): 84%
Preventive rate (%) (Pyricularia oryzae; [3]): 95%

CON=C(C(=O)OC)c1ccccc1COc1cc2c(cc1C)C(=NOC)C(C)C2 (single isomer, unassigned) [f-10]
Preventive rate (%) (Phytophthora infestans; [2]): 97%
Preventive rate (%) (Phytophthora infestans; [3]): 98%
Preventive rate (%) [1, 3]: 100%
Preventive rate (%) (Pyricularia oryzae; [4]): 85%
Preventive rate (%) (Pyricularia oryzae; [2]): 85%
Preventive rate (%) (Pyricularia oryzae; [3]): 90%

CNC(=O)C(=NOC)c1ccccc1COc1cc2c(cc1C)C(=NOC)C(C)C2 (single isomer, unassigned) [f-11]
Preventive rate (%) (Erysiphe graminis; [4]): 100%
Preventive rate (%) (Erysiphe graminis; [2]): 100%
Preventive rate (%) (Erysiphe graminis; [3]): 100%
Preventive rate (%) (Puccinia recondita; [4]): 100%
Preventive rate (%) (Puccinia recondita; [2]): 100%
Preventive rate (%) (Puccinia recondita; [3]): 100%
Preventive rate (%) (Phytophthora infestans; [4]): 100%
Preventive rate (%) (Phytophthora infestans; [2]): 100%
Preventive rate (%) (Phytophthora infestans; [3]): 100%
Preventive rate (%) [1, 4]: 100%
Preventive rate (%) [1, 2]: 100%
Preventive rate (%) [1, 3]: 100%
Preventive rate (%) (Pyricularia oryzae; [4]): 72%
Preventive rate (%) (Pyricularia oryzae; [2]): 83%
Preventive rate (%) (Pyricularia oryzae; [3]): 100%

COC=C(C(=O)OC)c1ccccc1COc1ccc2c(c1)OCC2=NOC [a-2]
Preventive rate (%) (Erysiphe graminis; [2]): 79%
Preventive rate (%) (Erysiphe graminis; [3]): 100%
Preventive rate (%) (Puccinia recondita; [4]): 98%
Preventive rate (%) (Puccinia recondita; [2]): 100%
Preventive rate (%) (Puccinia recondita; [3]): 100%
Preventive rate (%) (Phytophthora infestans; [4]): 97%
Preventive rate (%) (Phytophthora infestans; [2]): 97%
Preventive rate (%) (Phytophthora infestans; [3]): 100%
Preventive rate (%) [1, 2]: 100%
Preventive rate (%) [1, 3]: 100%
Preventive rate (%) (Pyricularia oryzae; [2]): 95%
Preventive rate (%) (Pyricularia oryzae; [3]): 97%
Preventive rate (%) (Chochliobolus miyabeanus; [2]): 93%
Preventive rate (%) (Chochliobolus miyabeanus; [3]): 96%

CON=C1COc2c1ccc(OCc1ccccc1/C(=N\OC)C(=O)OC)c2C [a-15]
Preventive rate (%) (Puccinia recondita; [4]): 96%
Preventive rate (%) (Puccinia recondita; [2]): 96%
Preventive rate (%) (Puccinia recondita; [3]): 100%
Preventive rate (%) (Phytophthora infestans; [2]): 81%
Preventive rate (%) (Phytophthora infestans; [3]): 94%
Preventive rate (%) (Botrytis cinerea; [2]): 73%
Preventive rate (%) (Botrytis cinerea; [3]): 96%

CON=C1COc2cc(OCc3ccccc3/C(=N\OC)C(=O)OC)c(C)cc21 [a-26]
Preventive rate (%) (Puccinia recondita; [4]): 100%
Preventive rate (%) (Puccinia recondita; [2]): 100%
Preventive rate (%) (Puccinia recondita; [3]): 100%
Preventive rate (%) (Phytophthora infestans; [2]): 81%
Preventive rate (%) (Phytophthora infestans; [3]): 100%
Preventive rate (%) [1, 2]: 100%
Preventive rate (%) [1, 3]: 100%
Preventive rate (%) (Botrytis cinerea; [2]): 72%
Preventive rate (%) (Botrytis cinerea; [3]): 87%

CCON=C1COc2c1ccc(OCc1ccccc1/C(=N\OC)C(=O)NC)c2C [a-36]
Preventive rate (%) (Puccinia recondita; [4]): 100%
Preventive rate (%) (Puccinia recondita; [2]): 100%
Preventive rate (%) (Puccinia recondita; [3]): 100%
Preventive rate (%) (Phytophthora infestans; [2]): 91%
Preventive rate (%) (Phytophthora infestans; [3]): 98%
Preventive rate (%) [1, 2]: 100%
Preventive rate (%) [1, 3]: 100%
Preventive rate (%) (Pyricularia oryzae; [2]): 90%
Preventive rate (%) (Pyricularia oryzae; [3]): 99%
Preventive rate (%) (Chochliobolus miyabeanus; [4]): 69%
Preventive rate (%) (Chochliobolus miyabeanus; [2]): 93%
Preventive rate (%) (Chochliobolus miyabeanus; [3]): 96%

CNC(=O)/C(=N/OC)c1ccccc1COc1ccc2c(c1)OCC2=NOC(C)C [a-40]
Preventive rate (%) (Puccinia recondita; [2]): 97%
Preventive rate (%) (Puccinia recondita; [3]): 100%
Preventive rate (%) [1, 2]: 97%
Preventive rate (%) [1, 3]: 100%
Preventive rate (%) (Botrytis cinerea; [2]): 100%
Preventive rate (%) (Botrytis cinerea; [3]): 100%

CCCON=C1COc2c1ccc(OCc1ccccc1/C(=N\OC)C(=O)NC)c2C [a-42]
Preventive rate (%) (Erysiphe graminis; [2]): 88%
Preventive rate (%) (Erysiphe graminis; [3]): 100%
Preventive rate (%) (Puccinia recondita; [4]): 100%
Preventive rate (%) (Puccinia recondita; [2]): 100%
Preventive rate (%) (Puccinia recondita; [3]): 100%
Preventive rate (%) (Phytophthora infestans; [2]): 98%
Preventive rate (%) (Phytophthora infestans; [3]): 98%
Preventive rate (%) [1, 4]: 100%
Preventive rate (%) [1, 2]: 100%
Preventive rate (%) [1, 3]: 100%
Preventive rate (%) (Pyricularia oryzae; [2]): 90%
Preventive rate (%) (Pyricularia oryzae; [3]): 98%
Preventive rate (%) (Chochliobolus miyabeanus; [2]): 85%
Preventive rate (%) (Chochliobolus miyabeanus; [3]): 91%

C=CCON=C1COc2c1ccc(OCc1ccccc1/C(=N\OC)C(=O)NC)c2C [a-60]
Preventive rate (%) (Erysiphe graminis; [2]): 100%
Preventive rate (%) (Erysiphe graminis; [3]): 100%
Preventive rate (%) (Puccinia recondita; [4]): 100%
Preventive rate (%) (Puccinia recondita; [2]): 100%
Preventive rate (%) (Puccinia recondita; [3]): 100%
Preventive rate (%) (Phytophthora infestans; [2]): 97%
Preventive rate (%) (Phytophthora infestans; [3]): 97%
Preventive rate (%) [1, 4]: 100%
Preventive rate (%) [1, 2]: 100%
Preventive rate (%) [1, 3]: 100%
Preventive rate (%) (Pyricularia oryzae; [2]): 86%
Preventive rate (%) (Pyricularia oryzae; [3]): 91%

CNC(=O)/C(=N/OC)c1ccccc1COc1ccc2c(c1)OCC2=NOC/C=C/Cl [a-63]
Preventive rate (%) (Erysiphe graminis; [4]): 99%
Preventive rate (%) (Erysiphe graminis; [2]): 100%
Preventive rate (%) (Erysiphe graminis; [3]): 100%
Preventive rate (%) [1, 2]: 100%
Preventive rate (%) [1, 3]: 100%
Preventive rate (%) (Botrytis cinerea; [2]): 100%
Preventive rate (%) (Botrytis cinerea; [3]): 100%

CON=C1c2ccc(OCc3ccccc3/C(=N\OC)C(=O)OC)c(C)c2OC1C (stereo not drawn) [b-6]
Preventive rate (%) (Erysiphe graminis; [2]): 89%
Preventive rate (%) (Erysiphe graminis; [3]): 90%
Preventive rate (%) (Phytophthora infestans; [2]): 92%
Preventive rate (%) (Phytophthora infestans; [3]): 94%
Preventive rate (%) [1, 2]: 100%
Preventive rate (%) [1, 3]: 100%
Preventive rate (%) (Pyricularia oryzae; [2]): 84%
Preventive rate (%) (Pyricularia oryzae; [3]): 88%
Preventive rate (%) (Chochliobolus miyabeanus; [2]): 70%
Preventive rate (%) (Chochliobolus miyabeanus; [3]): 90%

C=C(Cl)CON=C1CCOc2c1ccc(OCc1ccccc1C(=NOC)C(=O)NC)c2C [c-64]
Preventive rate (%) (Erysiphe graminis; [2]): 96%
Preventive rate (%) (Erysiphe graminis; [3]): 100%
Preventive rate (%) (Puccinia recondita; [4]): 99%
Preventive rate (%) (Puccinia recondita; [2]): 99%
Preventive rate (%) (Puccinia recondita; [3]): 100%
Preventive rate (%) (Pyricularia oryzae; [2]): 80%
Preventive rate (%) (Pyricularia oryzae; [3]): 98%

CON=C(C(=O)OC)c1ccccc1COc1ccc2c(c1C)OC(C)(C)CC2=NOC [d-6]
Preventive rate (%) (Puccinia recondita; [2]): 92%
Preventive rate (%) (Puccinia recondita; [3]): 99%
Preventive rate (%) (Pyricularia oryzae; [4]): 71%
Preventive rate (%) (Pyricularia oryzae; [2]): 77%
Preventive rate (%) (Pyricularia oryzae; [3]): 92%

COC=C(C(=O)OC)c1ccccc1COc1ccc2c(c1)CCC2=NO [e-1]
Preventive rate (%) (Chochliobolus miyabeanus; [4]): 87%

CON=C1CCc2cc(OCc3ccccc3C(=NOC)C(=O)OC)c(C)cc21 [e-26]
Preventive rate (%) (Erysiphe graminis; [2]): 100%
Preventive rate (%) (Erysiphe graminis; [3]): 100%
Preventive rate (%) (Puccinia recondita; [2]): 98%
Preventive rate (%) (Puccinia recondita; [3]): 98%
Preventive rate (%) (Phytophthora infestans; [2]): 97%
Preventive rate (%) (Phytophthora infestans; [3]): 100%
Preventive rate (%) [1, 4]: 75%
Preventive rate (%) [1, 2]: 100%
Preventive rate (%) [1, 3]: 100%
Preventive rate (%) (Chochliobolus miyabeanus; [2]): 71%
Preventive rate (%) (Chochliobolus miyabeanus; [3]): 91%

C#CCON=C1CCc2c1ccc(OCc1ccccc1C(=NOC)C(=O)NC)c2C [e-61]
Preventive rate (%) (Erysiphe graminis; [2]): 98%
Preventive rate (%) (Puccinia recondita; [4]): 100%
Preventive rate (%) (Puccinia recondita; [2]): 100%
Preventive rate (%) (Puccinia recondita; [3]): 100%
Preventive rate (%) (Phytophthora infestans; [2]): 98%
Preventive rate (%) (Phytophthora infestans; [3]): 100%
Preventive rate (%) [1, 4]: 100%
Preventive rate (%) [1, 2]: 100%
Preventive rate (%) [1, 3]: 100%
Preventive rate (%) (Chochliobolus miyabeanus; [4]): 84%
Preventive rate (%) (Chochliobolus miyabeanus; [2]): 90%
Preventive rate (%) (Chochliobolus miyabeanus; [3]): 90%
